Assay results taken from patent publication US20240292843A1, “BIOFILM REMOVAL” (PARTNERS FOR ENDOSCOPY LIMITED, priority 2021, published 2024).

Tested on: biofilm containing Pseudomonas aeruginosa
Test: Biofilm treatment of endoscope biopsy channel pieces, CFU by serial dilution and plate counting (FIG. 1)
Format: cell-based
Conditions: mature biofilm on biopsy channel tubes; treatment applied for 5 minutes; 1.5 wt. % hydrogen peroxide or 1 mg/ml zeolite Y, aqueous; versus phosphate-buffer saline control; triplicate
Experimental: The biopsy channel of the endoscope harbors a biofilm containing Pseudomonas aeruginosa. As a first step, to form the sample biopsy tubes harboring the biofilm, the biopsy channel was first cut into small pieces, which are then submerged into Müller-Hilton broth. A single colony of Pseudomonas aeruginosa was added to the broth. At a second step, the pieces were kept in the broth at 37° C. for 24 hours to allow the bacteria to grow. Also in the second step, the tube pieces were then washed 5 times with a copious amount of water to remove dangling bacteria, and to leave only fixed biofilm remaining on the surface of the tubes. The second step is then repeated three times to provide a mature biofilm. To provide the data of FIG. 1, different treatment mixtures were applied for 5 minutes to the tubes with mature biofilm. The tubes with mature biofilm were prepared using the method above. After the treatment mixture is applied, the tubes are washed. The tubes are then placed in a centrifuge tube floating in an ultrasonic bath to release bacteria in the biofilm into solution. The number of colony forming units (CFU) is calculated via serial dilution and plate counting method. Each experiment is performed in triplicate.

With `OO` [hydrogen peroxide] the “number of colony forming units of the Pseudomonas aeruginosa bacteria” value was “causes a reduction”.
